The record followed here is patent US20190059368A1, “3,5-DIMETHOXYSTILBENE ANALOGS AND USES THEREOF” (The United States of America, as represented by the …, priority 2017, published 2019).

Read-outs that look alike come from different tables or passages of the source.

The subject of series [1] is Meloidogyne incognita second-stage juveniles (J2). The series is described as follows: M. incognita assay with previously hatched J2 immersed in test solutions. The following applies: in vivo. The protocol:
(§1) Two types of assays were used to investigate activity against M. incognita: i) eggs were immersed in solutions of the test compounds, and ii) second-stage juveniles (J2) previously hatched from eggs were immersed in the test solutions. These assays were conducted with procedures similar to those in Meyer, et al. (J. Nematol. 2006, 38, 333). M. incognita race 1 (originally isolated in 2013 from a field in Maryland) was grown in the greenhouse on pepper (Capsicum annuum L.) cultivar PA-136. Egg masses were hand-picked from plant roots, rinsed three times with sterile distilled H2O, and agitated in 0.6% NaClO for 3.5 minutes to separate and surface-sterilize eggs. The eggs were rinsed in sterile distilled H2O and stored overnight at 4° C. before use in egg immersion assays. To collect J2 for direct immersion into the test compounds, sterilized eggs were placed into a hatching chamber made with a Spectra/Mesh Nylon Filter (openings 25 μm in diameter; Spectrum Laboratories Inc., Rancho Dominguez, Calif., USA) in an autoclaved dish. J2 that passed through the filter within 3 days were used immediately for assays.
The assays were conducted in 96-well polystyrene plates. For the assays with immersed eggs, each well received approximately 50 eggs in 35 μl of sterile deionized water (SDW). For assays with previously hatched J2, a suspension of approximately 50 J2 in 35 μl of SDW was placed into each well. Each well then received 165 μl of treatment or control. The solvent used to dissolve the test chemicals was a 1:1:1 mixture referred to herein as CTD: equal parts Cremophor® EL Castor Oil (BASF Corporation, Vandalia, Ill., USA), Tween 80® (Sigma-Aldrich, St. Louis, Mo., USA), and DMSO (Sigma-Aldrich). A high and low rate of each compound was tested. After addition to the nematode suspensions in the wells, the low and high rates were 83.3 and 166.7 μg/ml of each test compound, respectively, dissolved in 0.5% and 1.0% of each of the three combined solvents. Controls were CTD equivalent to the low and high rates, and SDW. Because of the large number of treatments, the test compounds were divided into two groups for the egg immersion assays. The compounds tested in the egg immersion Assay 1 were 3, 6a, 6e, 6f, 6g, 6n, 7a, 7c, 7e, 7f, 7n, 11, 12, 16, and 17. The compounds tested in the egg immersion Assay 2 were 6b, 6h, 6i, 6j, 6k, 6l , 7b, 7g, 7h, 7i, 7j, 7k, 7l, and 7m (data not shown). Test compounds used for assays with previously hatched J2 were selected based on results with the egg assays. […]
Each polystyrene culture plate was covered with a plastic adhesive sheet (Excel Scientific, Inc., Victorville, Calif., USA) and incubated at 25° C. […] In egg immersion assays, total numbers of hatched J2, and numbers of mobile and immobile J2, were counted after 2 and 7 days incubation in the test compounds. In the first assay with previously hatched J2, the numbers of mobile and immobile J2 were counted after 1 and 2 days incubation, the treatments removed and replaced with a SDW rinse, and 2 days later the mobile vs. immobile J2 counted again. […]
Data from the M. incognita assays were analyzed with the statistical package JMP 11.2.0 (SAS Institute, Cary, N.C., USA). Differences among numbers of hatched J2 in each treatment, and among percentage of mobile J2 per treatment (number mobile J2/total J2×100), were determined by the ANOVA, and means were compared using Tukey Kramer's adjustment for multiple comparisons (P<0.05). […]

For series [2], the system named is Meloidogyne incognita eggs. Kind of series: M. incognita egg immersion assay (hatch and mobility of hatched J2). In kind it is in vivo. The following applies: for Percent mobile J2, assay 1: 7 days; for effect on mobility of J2 hatched from eggs immersed in solutions (in words): in vivo; for Percent mobile J2, assay 2: 2 days. Here is the method: as §1
The assays were conducted in 96-well polystyrene plates. For the assays with immersed eggs, each well received approximately 50 eggs in 35 μl of sterile deionized water (SDW). For assays with previously hatched J2, a suspension of approximately 50 J2 in 35 μl of SDW was placed into each well. Each well then received 165 μl of treatment or control. The solvent used to dissolve the test chemicals was a 1:1:1 mixture referred to herein as CTD: equal parts Cremophor® EL Castor Oil (BASF Corporation, Vandalia, Ill., USA), Tween 80® (Sigma-Aldrich, St. Louis, Mo., USA), and DMSO (Sigma-Aldrich). A high and low rate of each compound was tested. After addition to the nematode suspensions in the wells, the low and high rates were 83.3 and 166.7 μg/ml of each test compound, respectively, dissolved in 0.5% and 1.0% of each of the three combined solvents. Controls were CTD equivalent to the low and high rates, and SDW. Because of the large number of treatments, the test compounds were divided into two groups for the egg immersion assays. The compounds tested in the egg immersion Assay 1 were 3, 6a, 6e, 6f, 6g, 6n, 7a, 7c, 7e, 7f, 7n, 11, 12, 16, and 17. The compounds tested in the egg immersion Assay 2 were 6b, 6h, 6i, 6j, 6k, 6l , 7b, 7g, 7h, 7i, 7j, 7k, 7l, and 7m (data not shown). Test compounds used for assays with previously hatched J2 were selected based on results with the egg assays. The five compounds tested were 6b, 6f, 6g, 6i, and 7k, high and low rates.
Each polystyrene culture plate was covered with a plastic adhesive sheet (Excel Scientific, Inc., Victorville, Calif., USA) and incubated at 25° C. Ten wells (water controls) or five wells (all other treatments) were used per treatment in each assay. In egg immersion assays, total numbers of hatched J2, and numbers of mobile and immobile J2, were counted after 2 and 7 days incubation in the test compounds. In the first assay with previously hatched J2, the numbers of mobile and immobile J2 were counted after 1 and 2 days incubation, the treatments removed and replaced with a SDW rinse, and 2 days later the mobile vs. immobile J2 counted again. In assays with 6g and 7k, high rates and counts were made on Days 1, 2, 4, and 6, without a SDW rinse.
Data from the M. incognita assays were analyzed with the statistical package JMP 11.2.0 (SAS Institute, Cary, N.C., USA). Differences among numbers of hatched J2 in each treatment, and among percentage of mobile J2 per treatment (number mobile J2/total J2×100), were determined by the ANOVA, and means were compared using Tukey Kramer's adjustment for multiple comparisons (P<0.05). For percent mobile J2 on Day 2 in egg immersion Assays 1 and 2, and Day 4 with the five compounds in the J2 immersion assay, data were log10 (x+1)-transformed before analysis. Data presented are nontransformed means.

In series [3] the test system is larvae of ORL and PR strains of Ae. aegypti. It is filed as in vivo. The note with it: larvae, 0.1 μg/μl, 24 h. Here is the method: (§2) Further tests were performed on compounds 11 and 12 to determine their effect on larvae and adult mosquitoes. The compounds were tested in the standard bioassays using the Orlando (ORL), pesticide-susceptible strain and the Puerto Rico (PR), pyrethroid-resistant strain of Ae. aegypti. The ORL strain has been in continuous colony since 1952 with no pesticide exposure while the resistant PR strain was colonized from egg papers collected near San Juan, PR in June, 2012. The PR strain is available as a resistant reference strain through BEIResources/CDC. Mortality was determined in the larval assays at four different concentrations (1, 0.5, 0.25, and 0.1 μg/μl) and three concentrations for adults (6.25%, 3.125%, and 1.56%). Mortality was recorded 24 h post-application, and in all assays, a negative solvent and a positive control using permethrin were utilized; tests were done in triplicate. Assays were conducted according to published procedures as described in Wanner, J. et al. (Curr. Bioact. Compd. 2015, 11, 13).

Series [4] has as its system adults of ORL and PR strains of Ae. aegypti. The series is described as follows: Adult mosquito assay, ORL and PR strains. The note with it: adults, 6.25%, 24 h. In kind it is in vivo. Here is the method: as §2

With `COc1cc(/C=C/c2ccc(Cl)cc2)cc(OC)c1C` [Compound 6f, (E)-1,3-dimethoxy-5-(4-chlorostyryl)-2-methylbenzene], the “effect on mobility of J2 previously hatched in water and immersed directly (in words)” value in series [1] was “only 6g and 7k had an effect on J2 mobility”. Further, the entries for the “Percent mobile J2, assay 1” value in series [2] (high rate (166.7 μg/ml)) and in series [2] (low rate (83.3 μg/ml)) were 71.3% and 93.9%, respectively. Moreover, in series [2], the “effect on mobility of J2 hatched from eggs immersed in solutions (in words)” value (shortened to “effect on mobility of J2 hatched”) was “some suppressive effect on mobility”.
With `COc1cc(/C=C/c2ccc(Br)cc2)cc(OC)c1C` [Compound 6g, (E)-1,3-dimethoxy-5-(4-bromostyryl)-2-methylbenzene], the “effect on mobility of J2 previously hatched in water and immersed directly (in words)” value in series [1] was “had an effect on J2 mobility”. For the same molecule, the entries for the “Percent mobile J2, assay 1” value in series [2] (high rate (166.7 μg/ml)) and in series [2] (low rate (83.3 μg/ml)) were 74.6% and 89.2%, respectively. Also, the “effect on mobility of J2 hatched” value in series [2] was “some suppressive effect on mobility”.
Regarding `CC1(C)C(C=C(Cl)Cl)C1C(=O)OCc1cccc(Oc2ccccc2)c1` (stereo not shown) [Permethrin, permethrin, reference compound], the “Percent Mortality” value in series [3] (ORL strain) turned out to be 100%; in series [3] (PR strain) it was 93.3 ± 11.5%; in series [4] (ORL strain) it was 100%; in series [4] (PR strain), 85 ± 10%.
For the molecule `COc1ccc(/C=C\c2cc(OC)c(C)c(OC)c2)cc1OC` [Compound 7k, (Z)-1,3-dimethoxy-5-(3,4-dimethoxystyryl)-2-methylbenzene], in series [1], the “effect on mobility of J2 previously hatched in water and immersed directly (in words)” value was “had an effect on J2 mobility”. Further, the figures for the “Percent mobile J2, assay 2” value in series [2] (high rate (166.7 μg/ml)) and in series [2] (low rate (83.3 μg/ml)) were 72.2% and 92.5%, respectively. For the same molecule, in series [2], the “effect on mobility of J2 hatched” value is “some suppressive effect on mobility”.
